# From publication PMC6193120, “Substrate Specificity Analysis of Dihydrofolate/Dihydromethanopterin Reductase Homologs in Methylotrophic α-Proteobacteria” (Frontiers in Microbiology, 2018)
# T1: M. extorquens AM1 DmrA-H4 (Methylorubrum extorquens, UniProt C5B2R8)
# T1 sequence (C5B2R8 1-135): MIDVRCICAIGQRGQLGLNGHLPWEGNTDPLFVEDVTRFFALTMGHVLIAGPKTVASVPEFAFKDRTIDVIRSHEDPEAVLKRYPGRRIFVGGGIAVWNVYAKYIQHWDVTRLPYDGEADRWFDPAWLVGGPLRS
# B1: H6-DfrB (Methylorubrum extorquens) (protein)
# chain: MDVRLIAAIGRRGQLGLEGDMPWGRSFPDDLRRFRELTAGGIVLVGWRTWPTVERLQGTHGRRFVVDDVKLPPTGMLVRLQEPDASGTRDRPVWIAGGAKTYARYARFVDEFVVRRVPYDGPADTWMPDLLGTPEADRTDGPYTGRSPTDKQWRPGCRRLRDR
# notes: megaplasmid-encoded
# B2: H6-DfrA (Methylorubrum extorquens) (protein)
# chain: MAQPRISLVAAIARNGVIGRDNSLAWRLSSDLKRFKALTMGKPILMGRKTWDSIGRPLPGRRSLVITRDRSLALSDVTVVHDWDEALAAAGDDELMVVGGAEIYRLALPHADRLHLTEVDAAPEGDAYFPPFDRSLFRETLREAHGPGERDEFAFQFVDLERLGSR
# Experiments:
# [1] = test system: T2, Mno-DAGK-H6; assay: NADPH oxidation at […] nm, anaerobic; assay type: biochemical, Methylobacterium nodulans; settings: 0.1 mM NADPH, pH 5.3, sodium acetate; H2SPT from partially oxidized Methanosarcina thermophila H4SPT fraction; read-out: KM(app)
# T2 construct: gene dmrA
# [2] = test system: T3, Hni-DAGK-H6; assay: NADPH oxidation at […] nm, anaerobic; assay type: biochemical, Hyphomicrobium nitrativorans; settings: 0.1 mM NADPH, pH 5.3, sodium acetate; H2SPT from partially oxidized Methanosarcina thermophila H4SPT fraction; read-out: KM(app)
# T3 construct: gene dmrA
# [3] = molecular target: T1, M. extorquens AM1 DmrA-H4; assay: NADPH oxidation at […] nm, anaerobic; assay type: biochemical; settings: 0.1 mM NADPH, pH 5.3, sodium acetate; H2SPT from partially oxidized Methanosarcina thermophila H4SPT fraction; read-out: KM(app)
# [4] = substrate: Nc1nc2c(c(=O)[nH]1)N=C(CNc1ccc(C(=O)N[C@@H](CCC(=O)O)C(=O)O)cc1)CN2; assay: purified protein; assay type: biochemical, Methylorubrum extorquens; settings: 100 μM NADPH, pH 6.8, room temperature
Molecule,Km [1] [µM],Km [2] [µM],Km [3] [µM],Km [4] [µM]
dihydrosarcinapterin,695 ± 176,102 ± 73,193 ± 71,–
B1,–,–,–,18 ± 8.9
B2,–,–,–,14 ± 3.0
